US7226923B2, “Phthalazinone derivatives” (Hoffman-La Roche Inc., priority 2004, dated 2007)

Test system: HCT 116 cells
Test: CellTiter-Glo assay in HCT 116 cells
Format: cell-based, human
Details: 5 days incubation, 30 μM to 0.0015 μM
Source text: CellTiter-Glo™ Assay in HCT 116 Cells
The CellTiter-Glo™ Luminescent Cell Viability Assay (Promega) is a homogeneous method of determining the number of viable cells in culture based on quantitation of the ATP present, which signals the presence of metabolically active cells.
HCT 116 cells (human colon carcinoma, ATCC-No. CCl-247) were cultivated in RPMI 1640 medium with GlutaMAX™ I (Invitrogen, Cat-No. 61870-010), 2.5% Fetal Calf Serum (FCS, Sigma Cat-No. F4135 (FBS)); 100 Units/ml penicillin/100 μg/ml streptomycin (=Pen/Strep from Invitrogen Cat. No. 15140). For the assay the cells were seeded in 384 well plates, 1000 cells per well, in the same medium. The next day the test compounds were added in various concentrations ranging from 30 μM to 0.0015 μM (10 concentrations, 1:3 diluted). After 5 days the CellTiter-Glo™ assay was done according to the instructions of the manufacturer (CellTiter-Glo™ Luminescent Cell Viability Assay, from Promega). In brief: the cell-plate was equilibrated to room temperature for approximately 30 minutes and than the CellTiter-Glo™ reagent was added. The contents were carefully mixed for 15 minutes to induce cell lysis. After 45 minutes the luminescent signal was measured in Victor 2, (scanning multiwell spectrophotometer, Wallac).
1st. Day: • Medium: RPMI 1640 with GlutaMAX™ I (Invitrogen, Cat-Nr. 61870), 5% FCS (Sigma Cat.-No. F4135), Pen/Strep (Invitrogen, Cat No. 15140). • HCT116 (ATCC-No. CCl-247): 1000 cells in 60 μl per well of 384 well plate (Greiner 781098, μClear-plate white) • After seeding incubate plates 24 h at 37° C., 5% CO2
2nd. Day: Induction (Treatment with Compounds, 10 Concentrations):
In order to achieve a final concentration of 30 μM as highest concentration 3.5 μl of 10 mM compound stock solution were added directly to 163 μl media. Then step e) of the dilution procedure described below, was followed.

IC50 [µM] | Compound
1.66 | Cc1cc(Nc2nn(-c3ccccc3)c(=O)c3ccccc23)[nH]n1 [Example A-1, 4-(5-Methyl-2H-pyrazole-3-ylamino)-phenyl-2H-phthalazin-1-one]

Same assay, conditions: Homo sapiens, HCT-116, 120 h, 5 days incubation, 30 μM to 0.0015 μM

IC50 [µM] | Compound
0.1 to 10 | CCOC(=O)N(C)c1ccc(-n2nc(Nc3cc(C)[nH]n3)c3ccccc3c2=O)cc1 [Example Y-3, Methyl-{4-[4-(5-methyl-1H-pyrazol-3-ylamino)-1-oxo-1H-phthalazin-2-yl]-phenyl}-carbamic acid ethyl ester]
0.1 to 10 | Cc1cc(Nc2nn(CC(C)C)c(=O)c3ccccc23)n[nH]1 [Example A-4, 2-Isobutyl-4-(5-methyl-1H-pyrazol-3-ylamino)-2H-phthalazin-1-one]
0.1 to 10 | Cc1cc(Nc2nn(C(C)C)c(=O)c3ccc(F)cc23)n[nH]1 [Example E-3, 6-Fluoro-2-isopropyl-4-(5-methyl-1H-pyrazol-3-ylamino)-2H-phthalazin-1-one]
0.1 to 10 | Cc1cc(Nc2nn(C(C)C)c(=O)c3ccc(N4CCOCC4)cc23)n[nH]1 [Example F-2, 2-Isopropyl-4-(5-methyl-1H-pyrazol-3-ylamino)-6-morpholino-2H-phthalazin-1-one]
0.1 to 10 | Cc1cc(Nc2nn(-c3ccc(Cl)cc3)c(=O)c3ccccc23)n[nH]1 [Example B-1, 2-(4-Chloro-phenyl)-4-(5-methyl-1H-pyrazol-3-ylamino)-2H-phthalazin-1-one]
0.1 to 10 | Cc1cc(Nc2nn(-c3ccc(C(C)(C)C)cc3)c(=O)c3ccc(Br)cc23)[nH]n1 [Example ZB-6, 6-Bromo-2-(4-tert-butyl-phenyl)-4-(5-methyl-2H-pyrazol-3-ylamino)-2H-phthalazin-1-one]
0.1 to 10 | Cc1cc(Nc2nn(CC3CC3)c(=O)c3ccccc23)n[nH]1 [Example E-11, 2-Cyclopropylmethyl-4-(5-methyl-1H-pyrazol-3-ylamino)-2H-phthalazin-1-one]
0.1 to 10 | Cc1cc(Nc2nn(-c3ccc(N)cc3)c(=O)c3ccccc23)n[nH]1 [Example C-2, 2-(4-Amino-phenyl)-4-(5-methyl-1H-pyrazol-3-ylamino)-2H-phthalazin-1-one]
0.1 to 10 | CSc1ccc(Cn2nc(Nc3cc(C)[nH]n3)c3ccccc3c2=O)cc1 [Example E-12, 4-(5-Methyl-1H-pyrazol-3-ylamino)-2-(4-methylsulfanyl-benzyl)-2H-phthalazin-1-one]
0.1 to 10 | Cc1cc(Nc2nn(C(C)C)c(=O)c3cc(C(=O)NC(C)C)ccc23)n[nH]1 [Example M-5, 3-Isopropyl-1-(5-methyl-1H-pyrazol-3-ylamino)-4-oxo-3,4-dihydro-phthalazine-6-carboxylic acid isopropylamide]
0.1 to 10 | CCN(C(C)=O)c1ccc(-n2nc(Nc3cc(C)[nH]n3)c3ccccc3c2=O)cc1 [Example Y-1, N-Ethyl-N-{4-[4-(5-methyl-1H-pyrazol-3-ylamino)-1-oxo-1H-phthalazin-2-yl]-phenyl}-acetamide]
0.1 to 10 | C=CCn1nc(Nc2cc(C)[nH]n2)c2ccccc2c1=O [Example E-10, 2-Allyl-4-(5-methyl-1H-pyrazol-3-ylamino)-2H-phthalazin-1-one]
0.1 to 10 | Cc1cc(Nc2nn(C(C)C)c(=O)c3cc(N(C)S(C)(=O)=O)ccc23)n[nH]1 [Example I-10, N-[3-Isopropyl-1-(5-methyl-1H-pyrazol-3-ylamino)-4-oxo-3,4-dihydro-phthalazin-6-yl]-N-methyl-methanesulfonamide]
0.1 to 10 | Cc1cc(Nc2nn(Cc3ccc(F)c(F)c3)c(=O)c3ccccc23)n[nH]1 [Example A-15, 2-(3,4-Difluoro-benzyl)-4-(5-methyl-1H-pyrazol-3-ylamino)-2H-phthalazin-1-one]
0.1 to 10 | Cc1cc(Nc2nn(-c3ccc(C(C)(C)C)cc3)c(=O)c3cc(N)ccc23)[nH]n1 [Example ZB-2, 7-Amino-2-(4-tert-butyl-phenyl)-4-(5-methyl-2H-pyrazol-3-ylamino)-2H-phthalazin-1-one]
0.1 to 10 | COCC(=O)Nc1ccc(-n2nc(Nc3cc(C)[nH]n3)c3ccccc3c2=O)cc1 [Example T-2, 2-Methoxy-N-{4-[4-(5-methyl-1H-pyrazol-3-ylamino)-1-oxo-1H-phthalazin-2-yl]-phenyl}-acetamide]
0.1 to 10 | Cc1cc(Nc2nn(C(C)C)c(=O)c3cc(SCCN4CCOCC4)ccc23)n[nH]1 [Example H-3, 2-Isopropyl-4-(5-methyl-1H-pyrazol-3-ylamino)-7-(2-morpholin-4-yl-ethylsulfanyl)-2H-phthalazin-1-one]
0.1 to 10 | Cc1cc(Nc2nn(C(C)C)c(=O)c3cc(NS(C)(=O)=O)ccc23)n[nH]1 [Example J-2, N-[3-Isopropyl-1-(5-methyl-1H-pyrazol-3-ylamino)-4-oxo-3,4-dihydro-phthalazin-6-yl]-methanesulfonamide]
0.1 to 10 | Cc1cc(Nc2nn(Cc3cc(F)ccc3F)c(=O)c3ccccc23)n[nH]1 [Example A-13, 2-(2,5-Difluoro-benzyl)-4-(5-methyl-1H-pyrazol-3-ylamino)-2H-phthalazin-1-one]
0.1 to 10 | Cc1cc(Nc2nn(-c3ccc([S+]([O-])c4ccccc4)cc3)c(=O)c3ccccc23)n[nH]1 (stereo not drawn) [Example ZA-2, 2-(4-Benzenesulfinyl-phenyl)-4-(5-methyl-1H-pyrazol-3-ylamino)-2H-phthalazin-1-one]
0.1 to 10 | CCOC(=O)N(C)c1ccc2c(Nc3cc(C)[nH]n3)nn(C(C)C)c(=O)c2c1 [Example I-7, [3-Isopropyl-1-(5-methyl-1H-pyrazol-3-ylamino)-4-oxo-3,4-dihydro-phthalazin-6-yl]-methyl-carbamic acid ethyl ester]
0.1 to 10 | Cc1cc(Nc2nn(-c3ccc(N4CCCC4)cc3)c(=O)c3ccccc23)n[nH]1 [Example U-3, 4-(5-Methyl-1H-pyrazol-3-ylamino)-2-(4-pyrrolidin-1-yl-phenyl)-2H-phthalazin-1-one]
10 to 100 | Cc1cc(Nc2nn(-c3ccc(-c4ccccc4)cc3)c(=O)c3ccccc23)n[nH]1 [Example Q-1, 2-Biphenyl-4-yl-4-(5-methyl-1H-pyrazol-3-ylamino)-2H-phthalazin-1-one]
